The text below walks through data of publication PMC10180076, “Novel Biologically Active N-Substituted Benzimidazole Derived Schiff Bases: Design, Synthesis, and Biological Evaluation” (Molecules, 2023).

The test system of series [1] is K-562, chronic myeloid leukemia. As to the kind of experiment: Proliferation assay (MTS, 72 h), K-562. Particulars: Homo sapiens, K562. The series is classed as cell-based, human. The source says:
(§1) Human cancer cells used in this manuscript, namely Capan-1, HCT-116, NCI-H460, LN-229, HL-60, K-562, and Z-138, were acquired from the American Type Culture Collection (ATCC, Manassas, VA, USA), while the DND-41 cell line was purchased from the Deutsche Sammlung von Mikroorganismen und Zellkulturen (DSMZ Leibniz-Institut, Braunschweig, Germany). Culture media were purchased from Gibco Life Technologies, Merelbeke, Belgium, and supplemented with 10% fetal bovine serum (HyClone, Cytiva, Marlborough, MA, USA). Vincristine and docetaxel, which were used as the reference inhibitors, were purchased from Selleckchem (Munich, Germany). Stock solutions were prepared in DMSO.
(§2) Adherent cell lines LN-229, HCT-116, and NCI-H460 and Capan-1 cells were seeded at a density between 500 and 1500 cells per well, in 384-well tissue culture plates (Greiner, Kremsmünster, Austria). After overnight incubation, the cells were treated with seven different concentrations of the test compounds, ranging from 100 to 0.006 µM.
(§3) Suspension cell lines HL-60, K-562, Z-138, and DND-41 were seeded at densities ranging from 2500 to 5500 cells per well in 384-well culture plates containing the test compounds at the same concentration points. The cells were incubated for 72 h with the compounds and were then analyzed using the CellTiter 96® AQueous One Solution Cell Proliferation Assay (MTS) reagent (Promega, Madison, WI, USA) according to the manufacturer’s instructions. […] The compounds were tested in two independent experiments.

For series [2], the system named is DND-41, acute lymphoblastic leukemia. As to the kind of experiment: Proliferation assay (MTS, 72 h), DND-41. The series is classed as cell-based, human. Conditions: Homo sapiens, DND41.
Text: as §1, §2, §3

Series [3] concerns HCT-116, colorectal carcinoma. As to the kind of experiment: Proliferation assay (MTS, 72 h), HCT-116. The series is classed as cell-based, human. Conditions: Homo sapiens, HCT-116.
Text: as §1, §2, §3

Series [4] deals with HL-60, acute myeloid leukemia. As to the kind of experiment: Proliferation assay (MTS, 72 h), HL-60. The series is classed as cell-based, human. Conditions: Homo sapiens, HL-60.
Text: as §1, §2, §3

In a further series the test system is NCI-H460, lung carcinoma. As to the kind of experiment: Proliferation assay (MTS, 72 h), NCI-H460. It is filed as cell-based, human. Conditions: Homo sapiens, NCI-H460.
Text: as §1, §2, §3

The test system of the next series is LN-229, glioblastoma. Kind of series: Proliferation assay (MTS, 72 h), LN-229. It is filed as cell-based, human. Particulars: Homo sapiens, LN-229.
Text: as §1, §2, §3

The subject of series [5] is Capan-1, pancreatic adenocarcinoma. Kind of series: Proliferation assay (MTS, 72 h), Capan-1. Conditions: Homo sapiens, CAPAN-1. It is filed as cell-based, human.
Text: as §1, §2, §3

Series [6] deals with Z-138, non-Hodgkin lymphoma. As to the kind of experiment: Proliferation assay (MTS, 72 h), Z-138. Conditions: Homo sapiens, Z-138. The series is classed as cell-based, human.
Text: as §1, §2, §3

A short description of a further series: in vitro. Particulars: dog.
Series [7] concerns influenza A/H1N1 (A/Ned/378/05). As to the kind of experiment: Antiviral CPE reduction assay, influenza A/H1N1 in MDCK. The series is classed as cell-based. Particulars: Influenza A virus, MDCK cells, 100 CCID50, MTS.
The test system of series [8] is influenza B (B/Ned/537/05). Kind of series: Antiviral CPE reduction assay, influenza B in MDCK. The series is classed as cell-based. Conditions: Influenza B virus; MDCK cells, 100 CCID50, MTS.
For series [9], the system named is influenza A/H3N2 (A/HK/7/87). Kind of series: Antiviral CPE reduction assay, influenza A/H3N2 in MDCK. Particulars: Influenza A virus, MDCK cells, 100 CCID50, MTS. The series is classed as cell-based.
Series [10] has as its system yellow fever virus (YFV 17D). As to the kind of experiment: microbe, parasite or virus in culture. It is filed as cell-based. Conditions: Huh-7, read-out: Antiviral Activity (EC50/μM) YFV 17D Huh-7.
Series [11] has as its system human coronavirus HCoV-229E. As to the kind of experiment: organism not typed. It is filed as cell-based. Particulars: HEL 299 cells, 100 CCID50, MTS; read-out: Antiviral Activity (EC50/μM) HCoV 229E HEL 299.
For a further series, the system named is Zika virus (Mr776). As to the kind of experiment: Antiviral CPE reduction assay, Zika virus in Huh-7. The series is classed as cell-based. Particulars: Huh-7 cells, 100 CCID50, MTS.
The subject of series [12] is respiratory syncytial virus A (Long). As to the kind of experiment: Antiviral CPE reduction assay, RSV A in HEL 299. Conditions: human respiratory syncytial virus; HEL 299 cells, 100 CCID50, MTS. The series is classed as cell-based.
The next series deals with sindbis virus. As to the kind of experiment: Antiviral CPE reduction assay, Sindbis virus in Huh-7. Conditions: Huh-7 cells, 100 CCID50, MTS. The series is classed as cell-based.
Series [13] relates to human coronavirus HCoV-NL63. Kind of series: Antiviral CPE reduction assay, HCoV-NL63 in Huh-7. The series is classed as cell-based. Conditions: Huh-7 cells, 100 CCID50, MTS.

The structures appear in SMILES notation. Where only a bound is given, the exact number is not on record here.

Consider `CCN(CC)c1ccc(/C=N/c2nc3ccccc3n2CC(C)C)c(O)c1` [Compound 30, (E)-5-(Diethylamino)-2-(((1-isobutyl-1H-benzo[d]imidazol-2-yl)imino)methyl)phenol], for which the IC50 in [1] was more than 100 µM; in series [2], more than 100 µM; in series [3], more than 100 µM; in series [4] it was 70.4 µM; in the series on NCI-H460, lung carcinoma, more than 100 µM; in the series with LN-229, glioblastoma, more than 100 µM. Also, the IC50 in [5] and in series [6] was more than 100 µM each time.

With `CC(=O)N[C@H]1[C@H]([C@H](O)[C@H](O)CO)OC(C(=O)O)=C[C@@H]1N=C(N)N` [Zanamivir, zanamivir, reference compound], in “in vitro”, the CC50 was more than 100 µM. The figures for the EC50 in series [7], in series [8] and in series [9] were 0.1 µM, 0.05 µM and 16.8 µM, respectively.

In the case of `CCCCCCn1c(/N=C/c2ccc(N(C)C)cc2)nc2ccc(C#N)cc21` [Compound 43, (E)-2-((4-(Dimethylamino)benzylidene)amino)-1-hexyl-1H-benzo[d]imidazole-6-carbonitrile], the melting point lay in the range of 165 to 170 °C. The compound also gave an IC50 in series [1] of more than 100 µM. The IC50 in [2] was more than 100 µM. Further, the IC50 in series [3] is more than 100 µM. The same compound displayed an IC50 in [4] of 33.5 µM. Also, 91.6 µM corresponded to half-maximal inhibition with NCI-H460, lung carcinoma (IC50). Further, in the series on LN-229, glioblastoma, the IC50 was more than 100 µM. In series [5], this compound yielded an IC50 of more than 100 µM. Besides, the IC50 in [6] was more than 100 µM.

On to `CCCCCCn1c(/N=C/c2ccc(N(CC)CC)cc2O)nc2ccc(C#N)cc21` [Compound 45, (E)-2-((4-(Diethylamino)-2-hydroxybenzylidene)amino)-1-hexyl-1H-benzo[d]imidazole-6-carbonitrile], for which the IC50 in [1] is more than 100 µM; in series [2], more than 100 µM; in series [3] it was more than 100 µM; in [4] it was more than 100 µM; in the series on NCI-H460, lung carcinoma, more than 100 µM; in the series with LN-229, glioblastoma, more than 100 µM. In addition, the IC50 in series [5] and in series [6] was more than 100 µM throughout.

In the case of `COC(=O)Nc1nc2ccc(C(=O)c3cccs3)cc2[nH]1` [NZO, nocodazole, reference compound], the IC50 in series [1] is 0.07 µM; in series [2] it was 0.47 µM; in series [3], 0.13 µM; in [4], 0.1 µM; with NCI-H460, lung carcinoma, 0.25 µM; in the series with LN-229, glioblastoma, 0.29 µM. The IC50 in series [5] is 0.1 µM; in series [6], 0.31 µM.

In turn, `CCCCCCn1c(N)nc2ccc(C#N)cc21` [Compound 24, 2-Amino-6-cyano-1-hexylbenzimidazole] gave a melting point of 215 to 220 °C.

In the series “in vitro”, `CC(N)C12CC3CC(CC(C3)C1)C2` (stereo not shown) [Rimantadine, rimantadine, reference compound] showed a CC50 of more than 100 µM. Further, the EC50 in series [7] is 5 µM; in series [8], more than 100 µM; in series [9] it was 0.05 µM.

Compound `NC(=O)c1ncn([C@@H]2O[C@H](CO)[C@@H](O)[C@H]2O)n1` [Ribavirin, ribavirin, reference compound] showed a CC50 in the series “in vitro” of 67 µM. The EC50 is more than 250 µM in [10]; 82.6 µM in [11]; more than 250 µM with Zika virus (Mr776); 10.8 µM in series [12]; 148 µM in the series with sindbis virus; 10.5 µM in [7]. The EC50 in [13] is more than 250 µM; in series [8] it was 2.8 µM; in series [9], 4 µM.
